Where two headings read alike, the source gives them in different places.
Assays:
[1] = tested on: A2058 (human metastatic melanoma); assay: MTS antiproliferative assay; conditions: Homo sapiens, A2058, 72 h, read-out: Cytotoxic activity IC50 A2058
[2] = tested on: Jurkat (human leukaemic T cell lymphoma); assay: MTS antiproliferative assay; conditions: Homo sapiens, Jurkat, 72 h, read-out: Cytotoxic activity IC50 Jurkat
[3] = Potentiometric determination of ligand protonation (dissociation) constants; assay type: physicochemical; conditions: 25 °C, I(KNO3) = 0.1 M
Description: The stock solution of HPic and H2Dpic was prepared by dissolving in demineralized water (c(ligand) = 0.02 M). The gallium(III) ion solution was prepared from anhydrous gallium(III) nitrate (c(Ga^3+) = 0.05 M) and was standardized by back titration of excess of EDTA with zinc(II). Decarbonated potassium hydroxide solution (approx. 0.2 M) was used as a titrant that was standardized by potassium hydrogen phthalate (c(KHP) = 0.1 M). Standard inert electrolyte of nitric acid was used in all titrations (c(HNO3) = 0.03 M, I(HNO3/KNO3) = 0.1 M). Potentiometric measurements were carried out using a TitroLine 7000 dosage system with a BlueLine combination electrode (SI Analytics) in a glass vessel (5 mL) thermostated at 25 ± 0.1 °C at an ionic strength I(KNO3) = 0.1 M. Inert atmosphere was ensured by a constant flow of a nitrogen gas. Precise calibration of the electrode was carried out by the titration of 0.03 M HNO3 with 0.2 M KOH in the range –log[H^+] = 1.8–12.0, with the pH-meter yielding E values. The relation between E and –log[H^+] is expressed by Eq. (1) where the term E^0 contains the standard potentials of the electrode and the contribution of inert ions to the liquid-junction potential. The value S corresponds to the Nernstian slope, the value of which should be close to the theoretical value, and j1[H^+] and j2[OH^–] = j2Kw/[H^+] are contributions of the H^+ and OH^– ions, respectively, to the liquid-junction potential. The pKw value was 13.78 in Eq. (1).1 E=E^0-S-logH^++j1H^++j2Kw/H^+
The parameters j1 and j2 cause deviation from linear dependence between E and –log[H^+] only in strongly acidic and strongly alkaline solutions. The picolinic and dipicolinic acid protonation constants were determined with ligand concentration 0.004 M. The stability constants in the Ga-HPic and Ga-H2Dpic binary system were determined by the ligand concentrations 0.004 and the Ga^3+ concentration was 0.004, 0.002 and 0.001 M in dependence on the ligand to metal ratio.
The protonation constants β110, β210 are the concentration constants and are defined by β110 = [HL]/ [H][L], β210 = [H2L]/ [H]^2[L] (pK2 = logβ110, pK1 = logβ210- logβ110); the stability constants are defined by βrqp = [HrLqMp]/[H]^r[L]^q[M]^p. The equilibrium constants were obtained by fitting the titration data with OPIUM [23]. The following hydrolysis constants were used for the calculations: βpr = [Mp(OH)r^3−r][H]^r/[M]^p; log β11 = − 2.74; log β12 = − 7.0; log β13 = − 11.96; log β14 = − 15.52 [24].

[4] = tested on: Pseudomonas aeruginosa (P. aeruginosa) CCM 1959; assay: Antimicrobial activity, macrodilution method (growth by A590); assay type: cell-based; conditions: Pseudomonas aeruginosa
[5] = tested on: Escherichia coli (E. coli) CCM 3988; assay: as above; assay type: cell-based; conditions: Escherichia coli
[6] = tested on: Staphylococcus aureus (S. aureus) CCM 3953; assay: as above; assay type: cell-based; conditions: Staphylococcus aureus

Compound: O=C(O)c1cccc(C(=O)O)n1 [H2Dpic, dipicolinic acid]
- IC50 [1]: > 200 µM
- IC50 [2]: > 200 µM
- dissociation constant pK2 [3]: 2.02
- dissociation constant pK3 [3]: 4.74
- IC50 ([4]; CCM1959, read-out: IC50 P. aeruginosa): > 1000 µM
- IC50 ([5]; CCM3988, read-out: IC50 E. coli): > 1000 µM
- IC50 ([6]; CCM3953, read-out: IC50 S. aureus): > 1000 µM

Compound: O=C(O)c1ccccn1 [HPic, picolinic acid]
- IC50 [1]: > 200 µM
- IC50 [2]: > 200 µM
- dissociation constant pK1 [3]: 1.17
- dissociation constant pK2 [3]: 5.25
- IC50 ([4]; CCM1959, Bacteria, MHB, 37 °C, DMSO max 1.0 vol. %, read-out: IC50 P. aeruginosa): > 500 µM
- IC50 ([5]; CCM3988, Bacteria, MHB, 37 °C, DMSO max 1.0 vol. %, read-out: IC50 E. coli): > 500 µM
- IC50 ([6]; CCM3953, Bacteria, MHB, 37 °C, DMSO max 1.0 vol. %, read-out: IC50 S. aureus): > 500 µM

Source: paper PMC10415494, “Ga(III) pyridinecarboxylate complexes: potential analogues of the second generation of therapeutic Ga(III) complexes?” (Journal of Biological Inorganic Chemistry, 2023)
